According to patent US5607937A, “Piperazides of substituted phenylalanine derivatives as thrombin inhibitors” (priority 1993, dated 1997):

Experiments:
plasma kallikrein = plasma kallikrein (Homo sapiens, UniProt P03952); assay: inhibition of plasma kallikrein, dissociation constant Ki
[1] = plasma concentration in rats after oral administration; format: in vivo; settings: rat, oral
Protocol: A physiological NaCl solution of the substance to be tested was submitted to high pressure liquid chromatography (HPLC) in order to determine its characteristic substance-specific retention time with the chosen test conditions.
The substance to be tested was diluted in vitro in rat plasma. This solution was also submitted to HPLC to see whether the characteristic peak of the substance once again appeared at the substance-specific retention time.
Blood samples were taken at time intervals of 15 minutes, from which plasma samples were prepared by centrifugation; those samples were also submitted to HPLC to see whether the characteristic peak of the substance appeared again at the substance-specific retention time.
After administration, blood samples were taken from the test animals at time intervals from 2 to maximally 360 minutes and the blood level of the compounds to be tested was determined by HPLC.

glandular kallikrein = glandular kallikrein (Sus scrofa, UniProt P00752); assay: inhibition of glandular kallikrein, dissociation constant Ki
[2] = plasma concentration in rats after intravenous administration; format: in vivo; settings: rat
trypsin [3] = target: T1, trypsin (Bos taurus, UniProt P00760); assay: inhibition of trypsin, dissociation constant Ki; format: biochemical; design: thrombin and the related enzymes trypsin, plasmin, factor Xa, factor XIIa; settings: Table 1; read-out: Ki, Trypsin
T1 sequence (P00760 24-246): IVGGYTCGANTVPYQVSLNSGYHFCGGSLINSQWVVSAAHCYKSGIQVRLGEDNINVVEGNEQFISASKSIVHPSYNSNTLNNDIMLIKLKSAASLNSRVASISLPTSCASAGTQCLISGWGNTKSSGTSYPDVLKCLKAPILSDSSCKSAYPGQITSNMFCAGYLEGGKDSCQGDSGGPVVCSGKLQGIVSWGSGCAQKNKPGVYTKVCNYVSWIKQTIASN
Protocol: The biological activity of the compounds of the present invention was determined in vitro as well as in vivo.

[4] = plasma concentration in rats after rectal administration; format: in vivo; settings: rat
[5] = system: coagulation in rat plasma; assay: aPTT in rat plasma after rectal application; format: in vivo; settings: rectal 5 mg/kg
Protocol: (§1) After rectal administration of the compounds to be tested, the anticoagulant effect was determined in the plasma of experimental animals.

thrombin = thrombin (Bos taurus, UniProt P00735); assay: biochemical
[6] = concentration in rat plasma in the anticoagulant study after rectal application; format: in vivo; settings: rectal 5 mg/kg
factor XIIa = target: T2, factor XIIa (Homo sapiens, UniProt P00748); assay: inhibition of factor XIIa, dissociation constant Ki; settings: Ki, Factor XIIa, Table 1
T2 sequence (P00748 373-615 limits assumed): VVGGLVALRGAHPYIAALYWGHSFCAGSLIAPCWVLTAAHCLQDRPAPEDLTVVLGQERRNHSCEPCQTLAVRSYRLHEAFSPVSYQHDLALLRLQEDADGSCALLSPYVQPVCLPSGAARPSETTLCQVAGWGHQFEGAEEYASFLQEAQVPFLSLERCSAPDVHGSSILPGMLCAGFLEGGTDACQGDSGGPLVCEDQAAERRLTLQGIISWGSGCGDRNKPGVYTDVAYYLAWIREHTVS

[7] = system: coagulation in human plasma; assay: activated partial thromboplastin time (aPTT) in human plasma
in vivo = settings: rat
[8] = system: coagulation in rat plasma; assay: thrombin time in rat plasma after rectal application; format: in vivo; settings: rectal 5 mg/kg
Protocol: as §1

tPA = tPA (Homo sapiens, UniProt P00750); assay: inhibition of tPA, dissociation constant Ki
[9] = system: coagulation in human plasma; assay: prothrombin time (PT, Quick value) in human plasma
[10] = system: coagulation in human plasma; assay: thrombin time (TT) in human plasma
trypsin [11] = target: T1, trypsin; settings: literature; cited from earlier work

Chain of plasma kallikrein (P03952 391-638 limits assumed, species assumed): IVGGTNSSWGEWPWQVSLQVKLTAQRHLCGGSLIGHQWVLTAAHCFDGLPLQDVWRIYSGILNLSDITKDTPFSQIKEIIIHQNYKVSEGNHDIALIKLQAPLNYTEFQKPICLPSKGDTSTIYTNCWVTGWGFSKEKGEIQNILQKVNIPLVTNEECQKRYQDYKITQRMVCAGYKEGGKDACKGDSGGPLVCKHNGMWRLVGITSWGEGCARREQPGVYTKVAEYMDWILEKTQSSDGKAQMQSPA
Chain of plasma kallikrein (P03952 20-390 partner limits assumed, species assumed): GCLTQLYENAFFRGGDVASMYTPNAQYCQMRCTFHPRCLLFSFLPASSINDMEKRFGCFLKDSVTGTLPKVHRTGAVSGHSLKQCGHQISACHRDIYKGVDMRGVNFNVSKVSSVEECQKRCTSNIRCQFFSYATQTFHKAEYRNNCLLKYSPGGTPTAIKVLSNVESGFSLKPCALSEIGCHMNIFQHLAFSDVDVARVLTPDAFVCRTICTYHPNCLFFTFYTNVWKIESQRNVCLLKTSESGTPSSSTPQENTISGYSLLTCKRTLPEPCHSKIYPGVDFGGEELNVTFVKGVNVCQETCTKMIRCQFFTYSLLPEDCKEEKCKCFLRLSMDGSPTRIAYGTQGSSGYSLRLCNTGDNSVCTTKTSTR
Chain of tPA (P00750 36-562): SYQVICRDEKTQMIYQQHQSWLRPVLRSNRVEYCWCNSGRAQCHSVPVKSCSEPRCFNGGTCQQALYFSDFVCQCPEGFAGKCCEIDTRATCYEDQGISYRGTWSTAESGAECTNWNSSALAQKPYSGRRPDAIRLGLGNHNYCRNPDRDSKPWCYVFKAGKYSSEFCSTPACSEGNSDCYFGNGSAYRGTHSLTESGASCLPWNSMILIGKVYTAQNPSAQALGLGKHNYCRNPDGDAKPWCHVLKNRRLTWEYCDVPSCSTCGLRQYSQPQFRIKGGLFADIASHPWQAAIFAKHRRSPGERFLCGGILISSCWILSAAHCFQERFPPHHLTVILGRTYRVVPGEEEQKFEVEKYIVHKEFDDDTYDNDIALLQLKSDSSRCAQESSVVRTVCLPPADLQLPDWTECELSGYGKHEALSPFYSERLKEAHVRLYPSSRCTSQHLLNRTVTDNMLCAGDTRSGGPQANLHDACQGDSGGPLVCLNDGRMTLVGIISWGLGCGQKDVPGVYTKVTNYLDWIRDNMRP
Chain of glandular kallikrein (P00752 8-246): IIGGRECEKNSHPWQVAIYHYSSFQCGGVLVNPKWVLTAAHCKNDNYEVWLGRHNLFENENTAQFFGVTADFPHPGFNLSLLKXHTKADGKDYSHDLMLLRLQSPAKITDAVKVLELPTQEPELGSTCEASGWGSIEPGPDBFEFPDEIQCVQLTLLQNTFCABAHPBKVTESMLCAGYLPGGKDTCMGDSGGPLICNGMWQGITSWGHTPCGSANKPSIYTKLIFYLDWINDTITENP

Cl.Cl.N=C(N)c1cccc(C[C@H](NS(=O)(=O)c2ccc3ccccc3c2)C(=O)N2CCN(CCO)CC2)c1 [Compound 3, Nα-(2-naphthylsulfonyl)-3-amidino-(L)-phenylalanine-4-(2-hydroxyethyl) -piperazide dihydrochloride]
Ki (plasma kallikrein): 25 µM | resorption in words [1]: only slightly resorbed | Ki (glandular kallikrein): > 1000 µM | concentration at 5 min ([2]; plasma, iv, i.v. 1 mg/kg, 5 min): 2210 ng/mL | concentration at 0.25 h ([2]; plasma, iv, i.v. 1 mg/kg, 15 min): 145 ng/mL | concentration at 0.5 h ([2]; plasma, iv, i.v. 1 mg/kg, 30 min): 313 ng/mL | concentration at 1 h ([2]; plasma, iv, i.v. 1 mg/kg, 60 min): 112 ng/mL | elimination in words ([2]; i.v.): eliminated at comparable rate | Concentration in plasma ([2]; i.v. 1 mg/kg, 120 min): 0 ng/mL | Concentration in plasma ([2]; i.v. 1 mg/kg, 180 min): 0 ng/mL | Ki (trypsin [3]): 0.6 µM | concentration at 0.5 h ([4]; plasma, rectal 20 mg/kg, 30 min): 7260 ng/mL | concentration at 1 h ([4]; plasma, rectal 20 mg/kg, 60 min): 3800 ng/mL | concentration at 2 h ([4]; plasma, rectal 20 mg/kg, 120 min): 1740 ng/mL | concentration at 3 h ([4]; plasma, rectal 20 mg/kg, 180 min): 814 ng/mL | concentration at 4 h ([4]; plasma, rectal 20 mg/kg, 240 min): 215 ng/mL | concentration at 5 h ([4]; plasma, rectal 20 mg/kg, 300 min): 61 ng/mL | concentration at 6 h ([4]; plasma, rectal 20 mg/kg, 360 min): 34 ng/mL | detectable in plasma after rectal administration ([4]; rectal): ≥ 6 h | Clotting time, aPTT ([5]; 0 min): 23.5 s | Clotting time, aPTT ([5]; 30 min): 39.8 s | Clotting time, aPTT ([5]; 60 min): 32.8 s | Clotting time, aPTT ([5]; 120 min): 27.4 s | Clotting time, aPTT ([5]; 180 min): 26.0 s | Ki (thrombin): 0.036 µM | concentration at 0.5 h ([6]; plasma, 30 min): 897 ng/mL | concentration at 1 h ([6]; plasma, 60 min): 462 ng/mL | concentration at 2 h ([6]; plasma, 120 min): 355 ng/mL | concentration at 3 h ([6]; plasma, 180 min): 49 ng/mL | Concentration in plasma ([6]; 0 min): 0 ng/mL | Ki (factor XIIa): 320 µM | Concentr. to double the aPTT [7]: 0.65 µmol/L | concentration at 0.5 h (in vivo; plasma, intraduodenal 100 mg/kg, 30 min): 3820 ng/mL | Concentration in plasma (in vivo; in vivo, other, 100 mg/kg, 120 min): 361 ng/mL | Concentration in plasma (in vivo; intraduodenal 100 mg/kg, 30 min, dihydrochloride, 100 mg/kg): 2262 ng/mL | Concentration in plasma (in vivo; intraduodenal 100 mg/kg, 60 min, dihydrochloride, 100 mg/kg): 2172 ng/mL | Concentration in plasma (in vivo; intraduodenal 100 mg/kg, 60 min, listed as 3*, dihydrochloride, 100 mg/kg): 795 ng/mL | Concentration in plasma (in vivo; intraduodenal 100 mg/kg, 120 min): 1457 ng/mL | Concentration in plasma (in vivo; intraduodenal 100 mg/kg, 180 min, dihydrochloride, 100 mg/kg): 945 ng/mL | Concentration in plasma (in vivo; intraduodenal 100 mg/kg, 180 min, listed as 3*, dihydrochloride, 100 mg/kg): 228 ng/mL | Concentration in plasma (in vivo; intraduodenal 100 mg/kg, 240 min, dihydrochloride, 100 mg/kg): 1277 ng/mL | Concentration in plasma (in vivo; intraduodenal 100 mg/kg, 240 min, listed as 3*, dihydrochloride, 100 mg/kg): 144 ng/mL | Concentration in plasma (in vivo; intraduodenal 100 mg/kg, 300 min, dihydrochloride, 100 mg/kg): 1400 ng/mL | Concentration in plasma (in vivo; intraduodenal 100 mg/kg, 300 min, listed as 3*, dihydrochloride, 100 mg/kg): 276 ng/mL | Clotting time, Thrombin time ([8]; 0 min): 45 s | Clotting time, Thrombin time ([8]; 30 min): 300 s | Clotting time, Thrombin time ([8]; 60 min): 298 s | Clotting time, Thrombin time ([8]; 120 min): 165 s | Clotting time, Thrombin time ([8]; 180 min): 114 s | Ki (tPA): 190 µM | Concentr. to double the Prothrombin time [9]: 1.3 µmol/L | Concentr. to double the Thrombin time [10]: 0.14 µmol/L

CC1CNc2c(cccc2S(=O)(=O)N[C@@H](CCCN=C(N)N)C(=O)N2CC[C@@H](C)C[C@@H]2C(=O)O)C1 (stereo partly drawn) [(2R,4R)-4-methyl-1-[Nα-(3-methyl-1,2,3,5-tetrahydro-8-quinolinesulfonyl)-L-arginine]-2-pipecoline-carboxylic acid]
trypsin-inhibiting activity in words (trypsin [11]): practically no trypsin-inhibiting activity
